Literature values as cited in patent publication US20020127259A1, “Rumen by-pass delivery system” (priority 1998, published 2002).

Settings: given by Seghers in 1990

| Substance | relative rate of phospholipid hydration [%] |
| --- | --- |
| Phosphatidylcholine | 100 |
| phosphatidic acid | 8.5 |
| phosphatidylethanolamine [P-ethanolamine] | 16 |
| phosphatidylinositol | 44 |
